Molecular target: C-X-C chemokine receptor type 4 (Homo sapiens, UniProt P61073)
Assay: Displacement of [125I]SDF-1alpha from CXCR4 expressed in HEK293 cell membrane after 1 hr
Format: cell membranes

C-X-C chemokine receptor type 4, sequence (P61073 whole entry): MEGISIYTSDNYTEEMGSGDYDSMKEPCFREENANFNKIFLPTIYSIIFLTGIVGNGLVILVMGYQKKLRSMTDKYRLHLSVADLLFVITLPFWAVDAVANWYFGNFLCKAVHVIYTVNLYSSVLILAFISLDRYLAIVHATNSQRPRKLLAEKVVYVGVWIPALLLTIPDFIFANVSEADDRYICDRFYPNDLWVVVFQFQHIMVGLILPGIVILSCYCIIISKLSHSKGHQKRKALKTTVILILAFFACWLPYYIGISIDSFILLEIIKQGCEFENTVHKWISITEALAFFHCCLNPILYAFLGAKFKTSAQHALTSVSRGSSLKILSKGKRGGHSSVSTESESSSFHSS

| SMILES | IC50 [nM] |
| --- | --- |
| C/C1=C(/C)[C@@H](Cc2ccc(O)cc2)NC(=O)CNC(=O)[C@H](Cc2ccc3ccccc3c2)NC(=O)[C@H](CCCNC(=N)N)NC(=O)[C@H]1CCCNC(=N)N | 2500 |
| CN1C(=O)[C@@H](Cc2ccc(O)cc2)NC(=O)CNC(=O)[C@H](Cc2ccc3ccccc3c2)NC(=O)[C@H](CCCNC(=N)N)NC(=O)[C@@H]1CCCNC(=N)N | 290 |
| C/C1=C(/C)[C@@H](CCCNC(=N)N)C(=O)N[C@@H](CCCNC(=N)N)C(=O)N[C@@H](Cc2ccc3ccccc3c2)C(=O)NCC(=O)N[C@@H]1Cc1ccc(O)cc1 | 100 |
| CN1C(=O)[C@@H](Cc2ccc(O)cc2)NC(=O)CNC(=O)[C@H](Cc2ccc3ccccc3c2)NC(=O)[C@H](CCCN=C(N)N)NC(=O)[C@H]1CCCN=C(N)N | 63 |
| NC(N)=NCCC[C@H]1CC[C@H](Cc2ccc(O)cc2)NC(=O)CNC(=O)[C@H](Cc2ccc3ccccc3c2)NC(=O)[C@H](CCCN=C(N)N)NC1=O | > 10000 |
| C/C1=C\[C@H](CCCNC(=N)N)C(=O)N[C@@H](CCCNC(=N)N)C(=O)N[C@@H](Cc2ccc3ccccc3c2)C(=O)NCC(=O)N[C@@H]1Cc1ccc(O)cc1 | 500 |
| NC(N)=NCCC[C@H]1/C=C/[C@@H](Cc2ccc(O)cc2)NC(=O)CNC(=O)[C@H](Cc2ccc3ccccc3c2)NC(=O)[C@H](CCCN=C(N)N)NC1=O | 330 |

Reference: ChEMBL document CHEMBL2029289, “Structure-activity relationship study of a CXC chemokine receptor type 4 antagonist, FC131, using a series of alkene dipeptide isosteres” (J Med Chem, 2012)
